# Molecular target: PARP-1 enzyme (Homo sapiens (Human), UniProt P09874)
# Experiment: PARP enzyme activity assay (HT Universal Chemiluminescent PARP Assay Kit, histone-coated wells)
# Assay type: biochemical
# Conditions: for inhibition at 0.03 µM: read-out: Inhibition (%) at 30 nM; for inhibition at 0.1 µM: read-out: Inhibition (%) at 100 nM
# Procedure: PARP is an enzyme responsible for post-translational modification, which may be activated by means of DNA damage. The process catalyzed by PARP in vivo is mainly NAD-dependent poly(ADP-ribosyl)ation, in which the substrates are mainly some nuclear proteins including PARP, one example of which is histone. In the present invention, the PARP activity is assayed by determining the poly(ADP-ribosyl)ation degree of histone coated in a 96-well plate in the presence of NAD, and the PARP activity under the action of a PARP inhibitor is correspondingly assayed, thereby evaluating the degree of inhibition of the compounds on PARP activity. Poly(ADP-ribosyl)ation of nuclear proteins is a post-translational modification occurred in response to DNA damage. PARP is the abbreviation of poly(ADP-ribose)polymerase, which catalyzes the attachment of poly(ADP-ribose) to an adjacent nuclear protein in the presence of NAD, thus eliciting a mechanism of DNA repair through base excision repair pathway. The level of biotin-labeled ADP-ribose binding to histone can be detected by using the HT Universal Chemiluminescent PARP Assay Kit commercially available from Trevigen Corp. […] HT Universal Chemiluminescent PARP Assay Kit with Histone-coated Strip Wells, commercially available from Trevigen (US), Catalog #: 4676-096-K. […] 4. The PARP enzyme was carefully diluted with the 1×PARP buffer just before use, the diluted enzyme solution should be used as quickly as possible and the remaining solution should be discarded. […] 2. […] 1. […] 2. […] 4. […] After washing, equal volume of the PeroxyGlow A and B solutions were uniformly mixed, 100 μl of the solution was added to each well, and the chemiluminescent signals were recorded on a plate reader immediately. The readout of each well is converted into the percent inhibition. […] Note: the readout of the positive control well is designated as 100% enzyme activity; the readout of the negative control well is designated as 0% enzyme activity; and the activity X refers to the readout from respective concentration of each sample.
# Sequence of PARP-1 enzyme (P09874 whole entry): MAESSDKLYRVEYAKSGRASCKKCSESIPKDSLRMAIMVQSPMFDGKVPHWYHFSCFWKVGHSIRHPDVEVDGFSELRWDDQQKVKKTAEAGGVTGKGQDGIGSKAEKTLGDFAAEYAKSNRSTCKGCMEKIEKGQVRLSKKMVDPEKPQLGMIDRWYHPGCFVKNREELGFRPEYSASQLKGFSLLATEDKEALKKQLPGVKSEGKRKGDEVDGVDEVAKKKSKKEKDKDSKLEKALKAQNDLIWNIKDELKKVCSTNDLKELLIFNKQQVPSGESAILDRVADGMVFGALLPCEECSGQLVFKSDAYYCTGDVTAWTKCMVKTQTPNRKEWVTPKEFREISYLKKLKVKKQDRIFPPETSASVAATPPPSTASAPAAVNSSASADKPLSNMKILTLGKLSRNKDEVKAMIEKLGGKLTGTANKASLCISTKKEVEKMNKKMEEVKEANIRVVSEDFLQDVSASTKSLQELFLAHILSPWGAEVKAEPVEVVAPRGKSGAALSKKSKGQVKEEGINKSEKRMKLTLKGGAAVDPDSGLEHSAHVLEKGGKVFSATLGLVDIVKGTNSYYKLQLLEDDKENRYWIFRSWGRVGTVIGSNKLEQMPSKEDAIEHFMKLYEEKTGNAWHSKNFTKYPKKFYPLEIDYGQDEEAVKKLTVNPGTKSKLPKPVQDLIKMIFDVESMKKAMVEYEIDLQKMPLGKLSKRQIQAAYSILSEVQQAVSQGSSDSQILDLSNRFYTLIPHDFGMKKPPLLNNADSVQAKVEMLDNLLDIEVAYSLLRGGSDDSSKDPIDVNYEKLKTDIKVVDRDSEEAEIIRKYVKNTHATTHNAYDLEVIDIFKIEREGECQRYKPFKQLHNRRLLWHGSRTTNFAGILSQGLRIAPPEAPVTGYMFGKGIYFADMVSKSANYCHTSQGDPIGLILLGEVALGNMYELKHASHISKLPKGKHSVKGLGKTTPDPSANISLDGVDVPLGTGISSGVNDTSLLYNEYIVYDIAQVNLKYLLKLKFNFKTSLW
Structure (SMILES),inhibition at 0.03 µM [%],inhibition at 0.1 µM [%]
"NC(=O)c1cccc2[nH]c(N3CCN(c4ncccn4)CC3)nc12 [Compound (1), 2-(4-(pyrimidin-2-yl)piperazin-1-yl)-1H-benzimidazole-4-carboxamide]",59,76
"NC(=O)c1cccc2[nH]c(N3CCN(c4ncc(F)cn4)CC3)nc12 [Compound (2), 2-(4-(5-fluoropyrimidin-2-yl)piperazin-1-yl)-1H-benzimidazole-4-carboxamide]",42,69
"CCNc1cnc(N2CCN(c3nc4c(C(N)=O)cccc4[nH]3)CC2)nc1 [Compound (3), 2-(4-(5-ethylaminopyrimidin-2-yl)piperazin-1-yl)-1H-benzimidazole-4-carboxamide]",6,13
"CC(=O)Nc1cnc(N2CCN(c3nc4c(C(N)=O)cccc4[nH]3)CC2)nc1 [Compound (4), 2-(4-(5-acetamidopyrimidin-2-yl)piperazin-1-yl)-1H-benzimidazole-4-carboxamide]",27,53
"COc1cnc(N2CCN(c3nc4c(C(N)=O)cccc4[nH]3)CC2)nc1 [Compound (5), 2-(4-(5-methoxypyrimidin-2-yl)piperazin-1-yl)-1H-benzimidazole-4-carboxamide]",32,60
"NC(=O)c1cccc2[nH]c(N3CCN(c4ncc(N)cn4)CC3)nc12 [Compound (6), 2-(4-(5-aminopyrimidin-2-yl)piperazin-1-yl)-1H-benzimidazole-4-carboxamide]",26,54
"NC(=O)c1cccc2[nH]c(N3CCN(c4ccncn4)CC3)nc12 [Compound (7), 2-(4-(pyrimidin-4-yl)piperazin-1-yl)-1H-benzimidazole-4-carboxamide]",73,85
"CCNc1cccnc1N1CCN(c2nc3c(C(N)=O)cccc3[nH]2)CC1 [Compound (8), 2-(4-(3-ethylaminopyridin-2-yl)piperazin-1-yl)-1H-benzimidazole-4-carboxamide]",8,16
"NC(=O)c1cccc2[nH]c(N3CCN(c4nccc(C(F)(F)F)n4)CC3)nc12 [Compound (9), 2-(4-(4-trifluoromethylpyrimidin-2-yl)piperazin-1-yl)-1H-benzimidazole-4-carboxamide]",16,31
"NC(=O)c1cccc2[nH]c(N3CCN(c4cc(C(F)(F)F)ncn4)CC3)nc12 [Compound (10), 2-(4-(6-trifluoromethylpyrimidin-4-yl)piperazin-1-yl)-1H-benzimidazole-4-carboxamide]",38,64
"CNC(=O)c1ccc(N2CCN(c3nc4c(C(N)=O)cccc4[nH]3)CC2)nc1 [Compound (11), 2-(4-(5-methylcarbamoylpyridin-2-yl)piperazin-1-yl)-1H-benzimidazole-4-carboxamide]",59,78
"NC(=O)c1ccc(N2CCN(c3nc4c(C(N)=O)cccc4[nH]3)CC2)nc1 [Compound (12), 2-(4-(5-carbamoylpyridin-2-yl)piperazin-1-yl)-1H-benzimidazole-4-carboxamide]",57,77
"NC(=O)c1cccc2[nH]c(N3CCN(c4ccnc(C(F)(F)F)c4)CC3)nc12 [Compound (13), 2-(4-(2-trifluoromethylpyridin-4-yl)piperazin-1-yl)-1H-benzimidazole-4-carboxamide]",43,69
"N#Cc1cnc(N2CCN(c3nc4c(C(N)=O)cccc4[nH]3)CC2)nc1 [Compound (14), 2-(4-(5-cyanopyrimidin-2-yl)piperazin-1-yl)-1H-benzimidazole-4-carboxamide]",57,78
"CN(C)C(=O)c1ccc(N2CCN(c3nc4c(C(N)=O)cccc4[nH]3)CC2)nc1 [Compound (15), 2-(4-(5-dimethylcarbamoylpyridin-2-yl)piperazin-1-yl)-1H-benzimidazole-4-carboxamide]",44,70
"NC(=O)c1cc(F)cc2[nH]c(N3CCN(c4ccncn4)CC3)nc12 [Compound (16), 6-fluoro-2-(4-(pyrimidin-4-yl)piperazin-1-yl)-1H-benzimidazole-4-carboxamide]",78,91
"NC(=O)c1cc(F)cc2[nH]c(N3CCN(c4ncc(F)cn4)CC3)nc12 [Compound (17), 6-fluoro-2-(4-(5-fluoropyrimidin-2-yl)piperazin-1-yl)-1H-benzimidazole-4-carboxamide]",56,78
"CN(C)C(=O)c1ccc(N2CCN(c3nc4c(C(N)=O)cc(F)cc4[nH]3)CC2)nc1 [Compound (18), 2-(4-(5-(dimethylcarbamoyl)pyridin-2-yl)piperazin-1-yl)-6-fluoro-1H-benzimidazole-4-carboxamide]",56,77
"N#Cc1cnc(N2CCN(c3nc4c(C(N)=O)cc(F)cc4[nH]3)CC2)nc1 [Compound (19), 2-(4-(5-cyanopyrimidin-2-yl)piperazin-1-yl)-6-fluoro-1H-benzimidazole-4-carboxamide]",77,93
"CNC(=O)c1cccnc1N1CCN(c2nc3c(C(N)=O)cc(F)cc3[nH]2)CC1 [Compound (20), 6-fluoro-2-(4-(3-methylcarbamoylpyridin-2-yl)piperazin-1-yl)-1H-benzimidazole-4-carboxamide]",39,67
"NC(=O)c1cc(F)cc2[nH]c(N3CCN(c4ccc(C(F)(F)F)cn4)CC3)nc12 [Compound (21), 6-fluoro-2-(4-(5-trifluoromethylpyridin-2-yl)piperazin-1-yl)-1H-benzimidazole-4-carboxamide]",32,60
"CNC(=O)c1cnc(N2CCN(c3nc4c(C(N)=O)cc(F)cc4[nH]3)CC2)nc1 [Compound (22), 6-fluoro-2-(4-(5-methylcarbamoylpyrimidin-2-yl)piperazin-1-yl)-1H-benzimidazole-4-carboxamide]",71,93
"CNC(=O)c1ccc(N2CCN(c3nc4c(C(N)=O)cc(F)cc4[nH]3)CC2)nn1 [Compound (23), 6-fluoro-2-(4-(6-methylcarbamoylpyridazin-3-yl)piperazin-1-yl)-1H-benzimidazole-4-carboxamide]",78,89
"CNC(=O)c1ccc(N2CCN(c3nc4c(C(N)=O)cc(F)cc4[nH]3)CC2)nc1 [Compound (24), 6-fluoro-2-(4-(5-methylcarbamoylpyridin-2-yl)piperazin-1-yl)-1H-benzimidazole-4-carboxamide]",45,65
"CNC(=O)c1cnc(N2CCN(c3nc4c(C(N)=O)cc(F)cc4[nH]3)CC2)cn1 [Compound (25), 6-fluoro-2-(4-(5-methylcarbamoylpyrazin-2-yl)piperazin-1-yl)-1H-benzimidazole-4-carboxamide]",79,92
"CCNC(=O)c1cnc(N2CCN(c3nc4c(C(N)=O)cc(F)cc4[nH]3)CC2)cn1 [Compound (26), 2-(4-(5-ethylcarbamoylpyrazin-2-yl)piperazin-1-yl)-6-fluoro-1H-benzimidazole-4-carboxamide]",80,94
"CC(C)NC(=O)c1cnc(N2CCN(c3nc4c(C(N)=O)cc(F)cc4[nH]3)CC2)cn1 [Compound (27), 6-fluoro-2-(4-(5-isopropylcarbamoylpyrazin-2-yl)piperazin-1-yl)-1H-benzimidazole-4-carboxamide]",66,86
"CC(C)(C)NC(=O)c1cnc(N2CCN(c3nc4c(C(N)=O)cc(F)cc4[nH]3)CC2)cn1 [Compound (28), 2-(4-(5-t-butylcarbamoylpyrazin-2-yl)piperazin-1-yl)-6-fluoro-1H-benzimidazole-4-carboxamide]",53,78
"NC(=O)c1cc(F)cc2[nH]c(N3CCN(c4cnc(C(=O)N5CCCC5)cn4)CC3)nc12 [Compound (29), 6-fluoro-2-(4-(5-(pyrrolin-1-acyl)pyrazin-2-yl)piperazin-1-yl)-1H-benzimidazole-4-carboxamide]",71,88
"NC(=O)c1cc(F)cc2[nH]c(N3CCN(c4cnc(C(=O)N5CCOCC5)cn4)CC3)nc12 [Compound (30), 6-fluoro-2-(4-(5-(morpholin-4-acyl)pyrazin-2-yl)piperazin-1-yl)-1H-benzimidazole-4-carboxamide]",78,92

# Source: US10196381B2, “Benzimidazole-2-piperazine heterocyclic compound, pharmaceutical composition containing the same, preparation method and use thereof” (Shanghai Huilun Life Science & Technology Co., Ltd., priority 2013, dated 2019)
